According to US20070299092A1 (Wyeth, priority 2004, published 2007):
Values joined by “and” are separate entries in the source; they are usually repeats but may differ in a detail not shown here. Equal values may be shown once. Read-outs that look alike come from different tables or passages of the source.

How the values were obtained:
[1] = target: T1, human KDR (VEGF-receptor-2) (Homo sapiens, UniProt P35968); assay: KDR kinase enzyme assay (DELFIA, KDR-IC-Flag, poly(Glu4-Tyr) peptide); assay type: biochemical; conditions: for inhibition at 0.1 µM / inhibition at 1 µM: read-out: % Inhibition
T1 construct: beginning at Met-806; (5′-ATG GAT CCA GAT GM CTC CCA TTG) and ending at Val-1356; made in house
T1 sequence (P35968 806-1356): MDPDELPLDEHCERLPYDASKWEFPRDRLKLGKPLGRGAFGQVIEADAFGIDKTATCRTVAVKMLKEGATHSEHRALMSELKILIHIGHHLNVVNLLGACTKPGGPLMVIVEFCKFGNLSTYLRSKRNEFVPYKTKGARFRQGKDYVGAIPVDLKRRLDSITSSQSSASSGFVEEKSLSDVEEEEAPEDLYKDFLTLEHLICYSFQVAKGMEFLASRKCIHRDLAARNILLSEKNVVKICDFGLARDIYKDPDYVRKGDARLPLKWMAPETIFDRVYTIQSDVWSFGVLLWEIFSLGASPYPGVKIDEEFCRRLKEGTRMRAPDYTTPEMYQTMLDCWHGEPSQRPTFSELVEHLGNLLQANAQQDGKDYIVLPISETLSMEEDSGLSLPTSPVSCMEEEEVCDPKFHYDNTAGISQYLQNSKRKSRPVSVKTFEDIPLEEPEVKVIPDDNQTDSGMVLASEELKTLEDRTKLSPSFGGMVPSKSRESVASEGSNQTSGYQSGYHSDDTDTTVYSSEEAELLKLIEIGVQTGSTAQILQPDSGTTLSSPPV

KDR [2] = target: T2, KDR (Homo sapiens, UniProt P35968); conditions: compound conc. 1000 nM
T2 sequence (P35968 20-1356): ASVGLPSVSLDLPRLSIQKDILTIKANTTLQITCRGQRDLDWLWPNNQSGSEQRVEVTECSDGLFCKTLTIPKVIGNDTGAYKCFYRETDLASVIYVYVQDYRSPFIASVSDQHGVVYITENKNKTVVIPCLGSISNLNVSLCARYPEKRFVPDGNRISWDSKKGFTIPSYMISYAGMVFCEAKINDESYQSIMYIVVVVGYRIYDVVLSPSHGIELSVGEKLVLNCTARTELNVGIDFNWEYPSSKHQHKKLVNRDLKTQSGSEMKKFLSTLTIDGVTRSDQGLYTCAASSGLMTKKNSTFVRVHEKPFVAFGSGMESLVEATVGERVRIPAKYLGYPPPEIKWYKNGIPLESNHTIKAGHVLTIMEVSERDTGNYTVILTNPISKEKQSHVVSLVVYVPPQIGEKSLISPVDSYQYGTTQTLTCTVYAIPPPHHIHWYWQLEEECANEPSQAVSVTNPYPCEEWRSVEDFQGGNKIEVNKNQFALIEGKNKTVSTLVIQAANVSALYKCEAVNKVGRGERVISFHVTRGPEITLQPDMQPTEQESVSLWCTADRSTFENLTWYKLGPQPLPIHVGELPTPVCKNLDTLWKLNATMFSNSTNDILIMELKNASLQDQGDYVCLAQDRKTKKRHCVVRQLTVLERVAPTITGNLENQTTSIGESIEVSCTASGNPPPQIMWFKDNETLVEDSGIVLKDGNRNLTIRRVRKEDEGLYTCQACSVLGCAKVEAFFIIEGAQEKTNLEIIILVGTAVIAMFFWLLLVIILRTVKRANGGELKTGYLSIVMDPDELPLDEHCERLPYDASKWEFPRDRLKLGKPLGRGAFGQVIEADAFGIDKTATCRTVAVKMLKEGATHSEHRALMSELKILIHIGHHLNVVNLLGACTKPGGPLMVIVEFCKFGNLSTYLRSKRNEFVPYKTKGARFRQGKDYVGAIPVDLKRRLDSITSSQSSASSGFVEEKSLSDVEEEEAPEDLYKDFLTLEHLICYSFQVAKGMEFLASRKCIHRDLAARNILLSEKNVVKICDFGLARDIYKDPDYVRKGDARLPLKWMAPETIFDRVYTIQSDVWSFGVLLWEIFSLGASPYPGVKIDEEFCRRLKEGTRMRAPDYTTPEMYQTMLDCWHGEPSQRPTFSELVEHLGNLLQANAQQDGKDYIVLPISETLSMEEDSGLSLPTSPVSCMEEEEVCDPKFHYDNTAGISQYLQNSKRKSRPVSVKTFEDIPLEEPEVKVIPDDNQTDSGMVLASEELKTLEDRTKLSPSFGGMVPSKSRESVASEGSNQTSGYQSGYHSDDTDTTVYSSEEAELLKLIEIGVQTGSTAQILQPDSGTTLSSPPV

KDR [3] = target: T2, KDR; assay: cell-based; conditions: for inhibition at 1 µM: read-out: % Inhibition of KDR kinase autophosphorylation in KDR15 cells, compound conc. 1000 nM; for IC50: IC50 (nM), inhibition of KDR kinase autophosphorylation in KDR15 cells, KDR15 cells, VEGF 50 ng/ml, phospho-KDR-Y996 immunoblot
[4] = target: T1, human KDR (VEGF-receptor-2); assay: KDR kinase enzyme assay wash-out experiments (irreversible inhibition); assay type: biochemical
Method: To determine if compounds bound irreversibly to enzyme, plates were washed after the enzyme plus compound pre-incubation step and prior to the addition of ATP. Parallel plates were tested wherein one plate was processed exactly as above while a second plate was washed three times in 100 μl of 4 mM HEPES, pH 7.4, to remove unbound compound. 1× Kinase buffer (30 μl of 1 mM MnCl2, 4 mM HEPES, pH 7.4, 20 μM Na3VO4) and 20 μl of ATP/MgCl2 were added to the wash-out plate. Detection of phosphotyrosinylated peptide for both plates was performed as described above.
For each inhibitor shown in Table 2, two IC50 determinations are shown, one under normal conditions and the other where an intermediate wash-out step is carried out. […] If there was a large increase in the IC50 value in the wash-out experiment compared to the experiment where there was no wash-out, then it was determined that the compound was behaving as a conventional reversible binding inhibitor.

[5] = tested on: Human umbilical vein endothelial cells (HUVEC); assay: HUVEC proliferation assay, VEGF-dependent growth ([3H]-thymidine incorporation); assay type: cell-based; conditions: for inhibition at 0.1 µM / inhibition at 1 µM / inhibition at 10 µM: Homo sapiens, HUVEC
Summary of the method: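 HUVEC seeded 4000 cells/well, attached overnight, then given compound in serum/VEGF-free EBM plus 50 ng/ml VEGF (final); parallel plates used EGM2 with 2% serum lacking VEGF. Incubation 4-5 days at 37° C. DNA synthesis measured by 5 h [3H]-thymidine (1 μCi/well) incorporation, scintillation-counted.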

[6] = Concentration 100 nM, ATP conc. 10 μM
[7] = Concentration 1000 nM, ATP conc. 10 μM
[8] = Concentration 1000 nM, ATP conc. 1000 μM

Row | inhibition at 0.1 µM [1, 6] | inhibition at 1 µM [1, 7] | inhibition at 1 µM [1, 8] | melting point | % Inhibition of KDR kinase autophosphorylation in KDR15 cells (KDR [2]) | inhibition at 1 µM (KDR [3]) | IC50 ([1]; ATP conc. 10 μM) | IC50 ([4]; no wash) | IC50 ([4]; wash out) | IC50 (KDR [3]) | SMILES | inhibition at 0.1 µM ([5]; conc. 100 nM) | inhibition at 1 µM ([5]; conc. 1000 nM) | inhibition at 10 µM ([5]; conc. 10000 nM) | also measured
1 | 24% | 58% | 33% |  | 55% and 94% |  |  |  |  |  | COc1cc2ncnc(NC3=CC(=O)C(C(C)C)=CC3=O)c2cc1OC [Example 9, 2-[(6,7-dimethoxy-4-quinazolinyl)amino]-5-isopropylbenzo-1,4-quinone] |  |  |  | 
2 | 93% | 94% | 96% |  | 40% and 54% and 64% |  | 4 nM |  |  | 386 nM | COc1cc2ncnc(NC3=CC(=O)C(Oc4ccc(Cl)cc4)=CC3=O)c2cc1OC [Example 94, 2-(4-chlorophenoxy)-5-[(6,7-dimethoxyquinazolin-4-yl)amino]benzo-1,4-quinone] | 28% | 60% | 94% | % Inhibition of VEGF-dependent growth of HUVEC ([5]; conc. 100 nM): 20%; % Inhibition of VEGF-dependent growth of HUVEC ([5]; conc. 1000 nM): 52%; % Inhibition of VEGF-dependent growth of HUVEC ([5]; conc. 10000 nM): 78%
3 |  | 30% | -2% |  | 90% and 143% and 113% |  | 1840 nM and > 1000 nM |  |  | < 15.6 nM | COCCOc1cc2ncnc(NC3=CC(=O)C(N(C)c4ccc(OC)c(OC)c4)=CC3=O)c2cc1OC [Example 73, 2-[(3,4-dimethoxyphenyl)(methyl)amino]-5-{[6-methoxy-7-(2-methoxyethoxy)quinazolin-4-yl]amino}benzo-1,4-quinone] |  |  |  | inhibition at 10 µM ([1]; Concentration not given, ATP conc. 10 μM): 13%
4 | 76% | 96% | 97% | 189 to 190 °C |  | 55% | 18.9 nM | 18.9 nM | 18.9 nM |  | COCCOc1cc2ncnc(NC3=CC(=O)C(Oc4cccnc4)=CC3=O)c2cc1OC [Example 91, 2-{[6-methoxy-7-(2-methoxyethoxy)quinazolin-4-yl]amino}-5-(pyridin-3-yloxy)benzo-1,4-quinone] | 0% | 15% | 93% | 
5 | 47% | 92% | 93% |  | 61% | 45% | 93 nM | 93 nM | 161 nM |  | COCCOc1cc2ncnc(NC3=CC(=O)C(N(C)c4ccc(N(C)C)cc4)=CC3=O)c2cc1OC [Example 75, 2-[[4-(dimethylamino)phenyl](methyl)amino]-5-{[6-methoxy-7-(2-methoxyethoxy)quinazolin-4-yl]amino}benzo-1,4-quinone] | -22% | 41% | 91% | 
6 | 85% | 96% | 97% |  | 41% |  | 2.3 nM and 1.3 nM | 2.3 nM | 1.2 nM | 250 nM | COc1cc2ncnc(NC3=CC(=O)C=C(C)C3=O)c2cc1OC [Example 7, 2-[(6,7-dimethoxy-4-quinazolinyl)amino]-6-methylbenzo-1,4-quinone] | 23% | 79% | 97% | inhibition at 10 µM ([1]; Concentration 10000 nM, ATP conc. 10 μM): 96%

Continued, molecule first:

Row | SMILES | inhibition at 0.1 µM [1, 6] | inhibition at 1 µM [1, 7] | inhibition at 1 µM [1, 8] | melting point | % Inhibition of KDR kinase autophosphorylation in KDR15 cells (KDR [2]) | inhibition at 1 µM (KDR [3]) | IC50 ([1]; ATP conc. 10 μM) | IC50 ([4]; no wash) | IC50 ([4]; wash out) | IC50 (KDR [3]) | inhibition at 0.1 µM ([5]; conc. 100 nM) | inhibition at 1 µM ([5]; conc. 1000 nM) | inhibition at 10 µM ([5]; conc. 10000 nM) | also measured
7 | COc1cc2ncnc(NC3=CC(=O)C(c4ccccc4)=CC3=O)c2cc1OC [Example 99, 2-[(6,7-dimethoxyquinazolin-4-yl)amino]-5-phenylbenzo-1,4-quinone] | 93% | 92% | 96% | 200 to 205 °C | 29% | 20% |  |  |  |  |  |  |  | 
8 | COc1cc2ncnc(NC3=CC(=O)C(C)=CC3=O)c2cc1OC [Example 4, 2-[(6,7-dimethoxy-4-quinazolinyl)amino]-5-methylbenzo-1,4-quinone] |  | 15% | 12% |  | 106% | 100% | 80.5 nM and 285 nM and 707 nM | 285 nM | > 1000 nM | < 15.6 nM |  |  |  | Behaviour as reversible or irreversible binding inhibitor ([4]; IC50 with wash-out step compared to no wash-out step): appear to act like reversible binding inhibitors
9 | COc1cc2ncnc(NC3=CC(=O)C(Cl)=CC3=O)c2cc1OC [Example 2, 2-chloro-5-[(6,7-dimethoxy-4-quinazolinyl)amino]benzo-1,4-quinone] | 83% | 96% | 98% |  | 12% | 18% | 5.1 nM |  |  |  |  |  |  | 
10 | COCCOc1cc2ncnc(NC3=CC(=O)C(OCc4ccccc4)=CC3=O)c2cc1OC [Example 96, 2-(benzyloxy)-5-{[6-methoxy-7-(2-methoxyethoxy)quinazolin-4-yl]amino}benzo-1,4-quinone] | 67% | 91% | 96% | 218 to 220 °C | 22% | 26% | 52.8 nM |  |  |  |  |  |  | 
11 | COCCOc1cc2ncnc(NC3=CC(=O)C(Oc4ccc(S(N)(=O)=O)cc4)=CC3=O)c2cc1OC [Example 38, 4-[(4-{[6-methoxy-7-(2-methoxyethoxy)quinazolin-4-yl]amino}-3,6-dioxocyclohexa-1,4-dien-1-yl)oxy] benzenesulfonamide] |  |  |  |  | 97% |  |  |  |  |  |  |  |  | % Inhibition [1, 6]: 93%; % Inhibition [1, 7]: 95%
12 | COCCOc1cc2ncnc(NC3=CC(=O)C4(C)OC4C3=O)c2cc1OC (stereo not shown) [Example 106, 4-{[6-methoxy-7-(2-methoxyethoxy)-4-quinazolinyl]amino}-1-methyl-7-oxabicyclo[4.1.0]hept-3-ene-2,5-dione] |  | 69% | 70% |  | 78% and 100% and 59% |  | 339 nM |  |  |  |  |  |  | 
13 | COCCOc1cc2ncnc(NC3=CC(=O)C(N(C)c4ccc(OC)cc4)=CC3=O)c2cc1OC [Example 78, 2-{[6-methoxy-7-(2-methoxyethoxy)quinazolin-4-yl]amino}-5-[(4-methoxyphenyl)(methyl)amino]benzo-1,4-quinone] |  |  |  | 197 to 198 °C | 61% |  | 147 nM and 95.9 nM and 406 nM | 147 nM and 95.9 nM | 514 nM and 150 nM |  | 6% |  |  | % Inhibition of VEGF-dependent growth of HUVEC ([5]; conc. 100 nM): 9%; % Inhibition of VEGF-dependent growth of HUVEC ([5]; conc. 10000 nM): 94% and 99% and 74%
14 | COCCOc1cc2ncnc(NC3=CC(=O)C(Oc4ccccc4C)=CC3=O)c2cc1OC [Example 90, 2-{[6-methoxy-7-(2-methoxyethoxy)quinazolin-4-yl]amino}-5-(2-methylphenoxy)benzo-1,4-quinone] |  | 94% | 96% | 134 to 137 °C |  |  | 30 nM and 7.5 nM and 8.8 nM | 8.8 nM | 18.5 nM | 236 nM and 147 nM | 22% | 15% | 95% | % Inhibition [1, 8]: 97%; inhibition at 0.2 µM (KDR [3]; read-out: % Inhibition of KDR kinase autophosphorylation in KDR15 cells, compound conc. 200 nM): 29%
15 | COCCOc1cc2ncnc(NC3=CC(=O)C(N(C)C4CCCCC4)=CC3=O)c2cc1OC [Example 80, 2-[cyclohexyl(methyl)amino]-5-{[6-methoxy-7-(2-methoxyethoxy)quinazolin-4-yl]amino}benzo-1,4-quinone] |  |  |  | 178 to 180 °C | 52% |  | 654 nM |  |  | < 62.5 nM | 39% | 85% | 97% | 
